Assay results published in ChEMBL document CHEMBL1201862, “PubChem BioAssay data set” (2004).
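These data come from cells grown in 96-well plates and exposed to compound for 48 hours at five concentrations. The concentration for 50% growth inhibition is given as GI50.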 Active and inactive are the calls of the source. Cut-off read from the data, not from the text of the source: active = GI50 up to about 1.1 µM and inactive = higher.

What was measured:
Experiment in all cases: NCI-60 cell line screen, 48 h
UACC-62 = tested on: UACC-62
DLD-1 = tested on: DLD-1
MCF7 = tested on: MCF7
M19-MEL = tested on: M19-MEL
DMS-114 = tested on: DMS-114
SN12C = tested on: SN12C
HT-29 = tested on: HT-29
HCT-116 = tested on: HCT-116
RPMI-8226 = tested on: RPMI-8226
EKVX = tested on: EKVX
SK-OV-3 = tested on: SK-OV-3
NCI-H226 = tested on: NCI-H226
COLO 205 = tested on: COLO 205
RXF 393 = tested on: RXF 393
CAKI-1 = tested on: CAKI-1
OVCAR-4 = tested on: OVCAR-4
OVCAR-8 = tested on: OVCAR-8
OVCAR-3 = tested on: OVCAR-3
KM12 = tested on: KM12
XF498 = tested on: XF498
NCI/ADR-RES = tested on: NCI/ADR-RES
A549 = tested on: A549
SK-MEL-2 = tested on: SK-MEL-2
NCI-H23 = tested on: NCI-H23
HCT-15 = tested on: HCT-15
SNB-19 = tested on: SNB-19
HL-60 = tested on: HL-60
SNB-75 = tested on: SNB-75
SK-MEL-5 = tested on: SK-MEL-5
HOP-18 = tested on: HOP-18
A498 = tested on: A498
LOX IMVI = tested on: LOX IMVI
UACC-257 = tested on: UACC-257
OVCAR-5 = tested on: OVCAR-5
DMS-273 = tested on: DMS-273
SF-268 = tested on: SF-268
SNB-78 = tested on: SNB-78
SW-620 = tested on: SW-620
U-251 = tested on: U-251
MOLT-4 = tested on: MOLT-4
NCI-H460 = tested on: NCI-H460
SK-MEL-28 = tested on: SK-MEL-28
IGROV-1 = tested on: IGROV-1
SF-539 = tested on: SF-539
HOP-92 = tested on: HOP-92
KM-20L2 = tested on: KM-20L2
HOP-62 = tested on: HOP-62
Malme-3M = tested on: Malme-3M
UO-31 = tested on: UO-31
SF-295 = tested on: SF-295
HCC 2998 = tested on: HCC 2998
K562 = tested on: K562
CCRF-CEM = tested on: CCRF-CEM
M14 = tested on: M14
786-0 = tested on: 786-0
TK-10 = tested on: TK-10
NCI-H522 = tested on: NCI-H522
ACHN = tested on: ACHN
LXFL 529 = tested on: LXFL 529
SR = tested on: SR

SMILES: Cc1cccc2nc3c(C(=O)NCCN(C)C)cccc3cc12
- GI50 (UACC-62): 1680 nM (inactive)
- GI50 (DLD-1): 1420 nM (inactive)
- GI50 (MCF7): 2200 nM (inactive)
- GI50 (M19-MEL): 1520 nM (inactive)
- GI50 (DMS-114): 1310 nM (inactive)
- GI50 (SN12C): 1190 nM (inactive)
- GI50 (HT-29): 791 nM (active)
- GI50 (HCT-116): 668 nM (active)
- GI50 (RPMI-8226): 789 nM (active)
- GI50 (EKVX): 1990 nM (inactive)
- GI50 (SK-OV-3): 2580 nM (inactive)
- GI50 (NCI-H226): 1070 nM (active)
- GI50 (COLO 205): 681 nM (active)
- GI50 (RXF 393): 1450 nM (inactive)
- GI50 (CAKI-1): 70 nM (active)
- GI50 (OVCAR-4): 1830 nM (inactive)
- GI50 (OVCAR-8): 1070 nM (active)
- GI50 (OVCAR-3): 2050 nM (inactive)
- GI50 (KM12): 2290 nM (inactive)
- GI50 (XF498): 1580 nM (inactive)
- GI50 (NCI/ADR-RES): 1950 nM (inactive)
- GI50 (A549): 1090 nM (active)
- GI50 (SK-MEL-2): 1880 nM (inactive)
- GI50 (NCI-H23): 2070 nM (inactive)
- GI50 (HCT-15): 2330 nM
- GI50 (SNB-19): 940 nM (active)
- GI50 (HL-60): 1140 nM (inactive)
- GI50 (SNB-75): 2250 nM (inactive)
- GI50 (SK-MEL-5): 1640 nM (inactive)
- GI50 (HOP-18): 2040 nM (inactive)
- GI50 (A498): 1370 nM (inactive)
- GI50 (LOX IMVI): 1260 nM (inactive)
- GI50 (UACC-257): 893 nM (active)
- GI50 (OVCAR-5): 2270 nM (inactive)
- GI50 (DMS-273): 929 nM (active)
- GI50 (SF-268): 1680 nM (inactive)
- GI50 (SNB-78): 2620 nM (inactive)
- GI50 (SW-620): 1000 nM (active)
- GI50 (U-251): 2520 nM (inactive)
- GI50 (MOLT-4): 337 nM (active)
- GI50 (NCI-H460): 705 nM (active)
- GI50 (SK-MEL-28): 1850 nM (inactive)
- GI50 (IGROV-1): 2310 nM (inactive)
- GI50 (SF-539): 2010 nM (inactive)
- GI50 (HOP-92): 776 nM (active)
- GI50 (KM-20L2): 1410 nM (inactive)
- GI50 (HOP-62): 1720 nM (inactive)
- GI50 (Malme-3M): 1380 nM (inactive)
- GI50 (UO-31): 1270 nM (inactive)
- GI50 (SF-295): 1510 nM (inactive)
- GI50 (HCC 2998): 2050 nM (inactive)
- GI50 (K562): 1800 nM (inactive)
- GI50 (CCRF-CEM): 1250 nM (inactive)

SMILES: N#CC1=C(N)N2C(=O)/C(=C/c3ccccc3)SC2C(c2nc3ccccc3[nH]2)=C1c1ccccc1 (stereo not drawn)
- GI50 (UACC-62): 2170 nM (inactive)
- GI50 (DLD-1): 3260 nM (inactive)
- GI50 (M19-MEL): 2880 nM (inactive)
- GI50 (DMS-114): 2160 nM (inactive)
- GI50 (M14): 2440 nM (inactive)
- GI50 (SN12C): 2910 nM (inactive)
- GI50 (HT-29): 4030 nM (inactive)
- GI50 (HCT-116): 3450 nM (inactive)
- GI50 (EKVX): 2230 nM (inactive)
- GI50 (SK-OV-3): 1680 nM (inactive)
- GI50 (786-0): 2720 nM (inactive)
- GI50 (NCI-H226): 1930 nM (inactive)
- GI50 (COLO 205): 5980 nM (inactive)
- GI50 (CAKI-1): 2070 nM (inactive)
- GI50 (OVCAR-4): 2420 nM (inactive)
- GI50 (OVCAR-8): 2460 nM (inactive)
- GI50 (OVCAR-3): 1890 nM (inactive)
- GI50 (KM12): 3550 nM (inactive)
- GI50 (XF498): 2110 nM (inactive)
- GI50 (A549): 3870 nM (inactive)
- GI50 (SK-MEL-2): 2040 nM (inactive)
- GI50 (NCI-H23): 1850 nM (inactive)
- GI50 (HCT-15): 2950 nM
- GI50 (SNB-19): 3400 nM (inactive)
- GI50 (HL-60): 2310 nM (inactive)
- GI50 (SNB-75): 1740 nM (inactive)
- GI50 (TK-10): 2420 nM (inactive)
- GI50 (SK-MEL-5): 1830 nM (inactive)
- GI50 (A498): 2120 nM (inactive)
- GI50 (LOX IMVI): 1730 nM (inactive)
- GI50 (UACC-257): 4550 nM (inactive)
- GI50 (OVCAR-5): 2540 nM (inactive)
- GI50 (DMS-273): 2070 nM (inactive)
- GI50 (SF-268): 2420 nM (inactive)
- GI50 (NCI-H522): 1860 nM (inactive)
- GI50 (SNB-78): 2520 nM (inactive)
- GI50 (ACHN): 3670 nM (inactive)
- GI50 (LXFL 529): 2490 nM (inactive)
- GI50 (SW-620): 3680 nM (inactive)
- GI50 (U-251): 2440 nM (inactive)
- GI50 (MOLT-4): 2400 nM (inactive)
- GI50 (NCI-H460): 3090 nM (inactive)
- GI50 (SK-MEL-28): 3120 nM (inactive)
- GI50 (IGROV-1): 2190 nM (inactive)
- GI50 (SF-539): 1910 nM (inactive)
- GI50 (HOP-92): 687 nM (active)
- GI50 (KM-20L2): 2750 nM (inactive)
- GI50 (HOP-62): 2440 nM (inactive)
- GI50 (Malme-3M): 1750 nM (inactive)
- GI50 (UO-31): 1930 nM (inactive)
- GI50 (SR): 1910 nM (inactive)
- GI50 (SF-295): 2530 nM (inactive)
- GI50 (HCC 2998): 1570 nM (inactive)
- GI50 (K562): 5320 nM (inactive)
- GI50 (CCRF-CEM): 1960 nM (inactive)
